Laboratory results published in patent US12384753B2, “17-beta-hydroxysteroid dehydrogenase type 13 inhibitors and methods of use thereof” (Enanta Pharmaceuticals, Inc., priority 2021, dated 2025).

target: Recombinant human HSD17B13 (Homo sapiens (Human), UniProt Q7Z5P4); test: HSD17B13 rapid-fire mass spectrometry assay (RF/MS assay); assay type: biochemical; details: inhibition of HSD17B13; LTB4 10 μM, NAD+ 0.5 mM, RT 3 h; IC50 ranges A-E
Procedure, shortened: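 Product 12-oxo-LTB4 and substrate LTB4 quantified by RapidFire triple-quad MS in negative mode, giving percent conversion. Reaction: 80 nM recombinant hHSD17B13, 10 μM LTB4, 0.5 mM NAD+, compound up to 100 μM, pH 7.5, RT, 3 h. Variable-slope fit gave IC50; run in duplicate.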

Sequence of Recombinant human HSD17B13 (Q7Z5P4 20-300): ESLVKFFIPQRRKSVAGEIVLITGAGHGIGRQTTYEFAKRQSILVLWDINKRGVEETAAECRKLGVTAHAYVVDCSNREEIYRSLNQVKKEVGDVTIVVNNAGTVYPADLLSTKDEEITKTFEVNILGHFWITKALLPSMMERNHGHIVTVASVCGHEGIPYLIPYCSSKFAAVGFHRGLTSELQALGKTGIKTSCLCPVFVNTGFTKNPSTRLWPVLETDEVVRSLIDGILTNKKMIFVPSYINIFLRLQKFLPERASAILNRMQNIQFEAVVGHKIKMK

| SMILES | IC50 [nM] |
| --- | --- |
| COc1cc(C(=O)O)c(F)cc1NS(=O)(=O)c1csc(-c2ccc(C3CCC4(CC3)CC4)cc2)n1 [Example 778] | < 100 |
| CCCCC[C@H]1CC[C@H](c2ccc(-c3nc(S(=O)(=O)Nc4ccc(C(=O)O)cc4OC)cs3)cc2)CC1 [Example 508] | < 100 |
| CCOc1c(C2CCC(C)(C)CC2)ccc(-c2nc(S(=O)(=O)Nc3cc(F)c(C(=O)O)cc3OC)cs2)c1F [Example 570] | < 100 |
| COc1cc(C(=O)O)c(F)cc1NS(=O)(=O)c1csc(C#Cc2ccc(F)cc2)n1 [Example 222] | < 100 |
| COc1cc(C(=O)O)c(F)cc1NS(=O)(=O)c1coc(-c2ccc([C@H]3CC[C@H](C(F)(F)F)CC3)cc2C(F)(F)F)n1 [Example 679] | < 100 |
| COc1cc(C(=O)O)ccc1NS(=O)(=O)N1CCCC(Oc2ccccc2)C1 (stereo not shown) [Example 320, 3-methoxy-4-((3-phenoxypiperidine)-1-sulfonamido)benzoic acid] | 1000 to 100000 |
| O=C(O)c1cc(O)c(NS(=O)(=O)c2cnc(-c3ccc(F)cc3)s2)cc1F [Example 61] | < 100 |
| CC[C@H]1CC[C@H](c2ccc(-c3nc4ccc(S(=O)(=O)Nc5cc(F)c(C(=O)O)cc5OC)cc4s3)cc2)CC1 [Example 658] | 1000 to 100000 |
| COc1cc(C(=O)O)c(F)cc1NS(=O)(=O)c1csc(-c2ccc(C3=CCC4(CC3)CC4)cc2)n1 [Example 758] | 100 to 500 |
| COc1cc(C(=O)O)ccc1NS(=O)(=O)c1csc(Nc2ccccc2)n1 [Example 163] | 1000 to 100000 |
| COc1cc(C(=O)O)c(F)cc1NS(=O)(=O)c1csc(-c2cc(F)c(C3CCC(C)(C)CC3)c(F)c2)n1 [Example 517] | 100 to 500 |
| COc1cc(C(=O)O)c(F)cc1NS(=O)(=O)c1cnc(-c2ccc(F)cc2)s1 [Example 39] | < 100 |
| COc1cc(C(=O)O)c(F)cc1NS(=O)(=O)c1cnc(-c2ccc(C3=CCC(F)(F)CC3)cc2)s1 [Example 727] | 100 to 500 |
| COc1cc(C(=O)O)ccc1NS(=O)(=O)c1ccc(-c2cccc(-c3ccc(C)cc3)c2)s1 [Example 250, 3-methoxy-4-((5-(4′-methyl-[1,1′-biphenyl]-3-yl)thiophene)-2-sulfonamido)benzoic acid] | 100 to 500 |
| COc1cc(C(=O)O)ccc1NS(=O)(=O)c1csc(C2CCC(c3ccccc3)CC2)n1 (single isomer, unassigned) [Example 369] | 100 to 500 |
| COc1cc(C(=O)O)ccc1NS(=O)(=O)c1csc(N2CCCC(c3ccc(C(F)(F)F)cc3)C2)n1 (stereo not shown) [Example 293] | 1000 to 100000 |
| COc1cc(C(=O)O)c(F)cc1NS(=O)(=O)c1cnn(-c2ccc(C3CCC(C)(C)CC3)cc2)c1 [Example 684] | 100 to 500 |
| CCOC(=O)c1cc2c(c(OC)c1)N(S(=O)(=O)c1csc(-c3ccc(F)cc3)n1)CCC2 [Example 131] | 1000 to 100000 |
| COc1cc(C(=O)O)ccc1NS(=O)(=O)c1csc(C#Cc2ccc(C#N)cc2)n1 [Example 223] | 1000 to 100000 |
| CNc1cc(C(=O)O)ccc1NS(=O)(=O)c1csc(-c2ccc(C3CCC(C)(C)CC3)cc2C(F)(F)F)n1 [Example 705] | 1000 to 100000 |
| COc1cc(C(=O)O)c(F)cc1NS(=O)(=O)c1csc(-c2ccc(-c3ccc(C(F)(C(F)(F)F)C(F)(F)F)cc3)c(OC(C)C)c2F)n1 [Example 793] | < 100 |
| COc1cc(C(=O)O)c(F)cc1NS(=O)(=O)c1csc(-c2ccc(C3=CCC(C(C)C)CC3)c(OC(C)C)c2F)n1 (stereo not shown) [Example 584] | < 100 |

| SMILES | IC50 [nM] |
| --- | --- |
| COc1cc(C(=O)O)c(F)cc1NS(=O)(=O)c1cnc(-c2ccc([C@H]3CC[C@H](C(F)(F)F)CC3)cc2)s1 [Example 725] | < 100 |
| COc1cc(C(=O)O)c(F)cc1NS(=O)(=O)c1cccc(-c2ccc(C3=CCC(C(C)(C)C)CC3)cc2)c1F (stereo not shown) [Example 498] | < 100 |
| COc1cc(C(=O)O)c(F)cc1NS(=O)(=O)c1csc(-c2ccc(C3=CCC(C(C)C)CC3)c(OC)c2F)n1 (stereo not shown) [Example 799] | < 100 |
| CCC1CC=C(c2ccc(-c3nc(S(=O)(=O)Nc4cc(F)c(C(=O)O)cc4OC)cs3)c(C(F)(F)F)c2)CC1 (stereo not shown) [Example 785] | < 100 |
| CC[C@H]1CC[C@H](c2ccc(-c3nc(S(=O)(=O)Nc4cc5nc[nH]c(=O)c5cc4OC)cs3)cc2)CC1 [Example 575] | 1000 to 100000 |
| COc1cc(C(=O)O)c(F)cc1NS(=O)(=O)c1coc(-c2ccc(C3CCCCC3)cc2)n1 [Example 497] | 100 to 500 |
| COc1cc(C(=O)O)ccc1NS(=O)(=O)c1csc(C#Cc2cccc(F)c2)n1 [Example 203] | < 100 |
| COc1cc(C(=O)O)ccc1NS(=O)(=O)c1cnc(-c2ccc(C3=CC(C)(C)CC(C)(C)C3)cc2)s1 [Example 708] | 100 to 500 |
| COc1cc(C(=O)O)ccc1NS(=O)(=O)c1csc(-c2ccc(-c3ccc(-c4ccc5c(c4)OCCO5)cc3)cc2)n1 [Example 383] | < 100 |
| COc1cc(C(=O)O)ccc1NS(=O)(=O)c1cnc(-c2ccc(C3CCC(C)(C)CC3)cc2)s1 [Example 453] | 100 to 500 |
| COc1cc(C(=O)O)c(F)cc1NS(=O)(=O)c1cc(-c2ccc(C3CCCCC3)cc2)ccn1 [Example 622] | 500 to 1000 |
| COc1cc(C(=O)O)ccc1NS(=O)(=O)c1cncc(C#Cc2cccc(OC(F)(F)F)c2)c1 [Example 434, 3-methoxy-4-((5-((3-(trifluoromethoxy)phenyl)ethynyl)pyridine)-3-sulfonamido)benzoic acid] | 500 to 1000 |
| COc1cc(C(=O)O)c(F)cc1NS(=O)(=O)c1csc(-c2ccc([C@H]3CC[C@@H](C(C)(C)C)CC3)cc2)n1 [Example 761] | 100 to 500 |
| COc1cc(C(=O)O)ccc1NS(=O)(=O)c1ccc(-c2ccccc2)cc1 [Example 144] | 100 to 500 |
| COc1cc(C(=O)O)c(F)cc1NS(=O)(=O)c1cnc(-c2ccc([C@H]3CC[C@H](C(C)(C)C)CC3)cc2)s1 [Example 721] | 100 to 500 |
| COc1cc(C(=O)O)ccc1NS(=O)(=O)c1csc(C#Cc2ccccc2C(F)(F)F)n1 [Example 225] | < 100 |
| COc1cc(C(=O)O)ccc1NS(=O)(=O)c1ccc(-c2ccc(-c3ccc(O)cc3)cc2)s1 [Example 207] | 500 to 1000 |
| COc1cc(C(=O)O)ccc1NS(=O)(=O)c1cnc(C#Cc2ccccc2)s1 [Example 169] | 100 to 500 |
| CC[C@H]1CC[C@H](c2ccc(-c3nc(S(=O)(=O)Nc4cc(F)c(C(=O)O)cc4OC)c(C)s3)cc2)CC1 [Example 667] | 100 to 500 |
| COc1cc(C(=O)O)c(NS(C)(=O)=O)cc1NS(=O)(=O)c1csc(-c2ccc(C3CCC(C)(C)CC3)cc2C(F)(F)F)n1 [Example 701] | 1000 to 100000 |
| COc1cc(C(=O)O)c(F)cc1NS(=O)(=O)c1csc(-c2ccc(C3CCC(C)(C)CC3)cc2C)n1 [Example 559] | < 100 |
| COc1cc(C(=O)O)c(F)cc1NS(=O)(=O)c1coc(-c2ccc([C@H]3CC[C@H](C(F)(F)F)CC3)cc2)n1 [Example 492] | < 100 |

| SMILES | IC50 [nM] |
| --- | --- |
| C=C(COC)c1ccc(-c2nc(S(=O)(=O)Nc3ccc(C(=O)O)cc3OC)cs2)cc1 [Example 406, 3-methoxy-4-((2-(4-(3-methoxyprop-1-en-2-yl)phenyl)thiazole)-4-sulfonamido)benzoic acid] | 100 to 500 |
| COc1cc(C(=O)O)ccc1NS(=O)(=O)c1csc(-c2ccc(F)c3ccccc23)n1 [Example 88] | 1000 to 100000 |
| COc1cc(C(=O)O)ccc1NS(=O)(=O)c1csc(N2CCN(C(=O)OCc3ccccc3)CC2)n1 [Example 294] | 100 to 500 |
| COc1cc(C(N)=O)ccc1NS(=O)(=O)c1cnc(-c2ccc(F)cc2)s1 [Example 120] | 1000 to 100000 |
| COc1cc(C(=O)O)c(C2=CCCC2)cc1NS(=O)(=O)c1csc(-c2ccc(C3CCC(C)(C)CC3)cc2C(F)(F)F)n1 [Example 698] | 1000 to 100000 |
| COc1cc(C(=O)O)ccc1NS(=O)(=O)c1csc(N2CCCC(CCc3ccccc3)C2)n1 (stereo not shown) [Example 277] | 1000 to 100000 |
| COc1cc(C(=O)O)c(C2CC2)cc1NS(=O)(=O)c1csc(-c2ccc(C3CCC(C)(C)CC3)cc2C(F)(F)F)n1 [Example 699] | 1000 to 100000 |
| COc1cc(C(=O)O)ccc1NS(=O)(=O)c1ccc2sc(-c3ccc(C4CCC(C)(C)CC4)cc3)nc2c1 [Example 456, 4-((2-(4-(4,4-dimethylcyclohexyl)phenyl)benzo[d]thiazole)-5-sulfonamido)-3-methoxybenzoic acid] | 1000 to 100000 |
| O=C(O)Cc1ccc(NS(=O)(=O)c2cnc(-c3ccc(F)cc3)s2)cc1 [Example 27] | 1000 to 100000 |
| COc1cc(C(=O)O)c(F)cc1NS(=O)(=O)c1ccn(-c2ccc([C@H]3CC[C@H](C(C)C)CC3)cc2)n1 [Example 694] | < 100 |
| CN(C)S(=O)(=O)NC(=O)c1ccc(NS(=O)(=O)c2cnc(-c3ccc(F)cc3)s2)cc1 [Example 32] | 1000 to 100000 |
| COc1cc(C(=O)O)ccc1NS(=O)(=O)c1ccc(-c2ccccc2F)s1 [Example 201] | < 100 |
| COc1cc(C(=O)O)c(F)cc1NS(=O)(=O)c1csc(-c2ccc(-c3cccc4[nH]ccc34)cc2)n1 [Example 647] | < 100 |
| COc1cc(C(=O)O)c(F)cc1NS(=O)(=O)c1csc(-c2ccc([C@H]3CC[C@@H](C(C)(C)C)CC3)cc2C(F)(F)F)n1 [Example 782] | 100 to 500 |
| COc1cc(C(=O)O)ccc1NS(=O)(=O)c1csc(C2CCC(C)(C)CC2)n1 [Example 457, 4-((2-(4,4-dimethylcyclohexyl)thiazole)-4-sulfonamido)-3-methoxybenzoic acid] | 500 to 1000 |
| COc1cc(C(=O)O)c(F)cc1NS(=O)(=O)c1csc(-c2ccc(-c3ccc(-c4ccc(C(F)(F)C(F)(F)F)cc4)cc3C(F)(F)F)cc2C(F)(F)F)n1 [Example 788] | 100 to 500 |
| COc1cc(C(=O)O)ccc1NS(=O)(=O)c1cccc(-c2ccc(F)cc2)c1 [Example 319] | 1000 to 100000 |
| COc1cc(C(=O)O)ccc1NS(=O)(=O)c1csc(N2CCC(c3ccccn3)CC2)n1 [Example 262] | 1000 to 100000 |
| COc1cc(C(=O)O)c(F)cc1NS(=O)(=O)c1csc(-c2ccc(-c3ccccc3O)cc2)n1 [Example 531] | 100 to 500 |
| O=C(O)c1ccc(NS(=O)(=O)c2cnc(-c3ccc(F)cc3)s2)c(C(F)(F)F)c1 [Example 45] | 1000 to 100000 |
